Measurements from US11324237B2, “Tasteful natural sweetener and flavor” (EPC Natural Products Co., Ltd., priority 2018, dated 2022).
“Also recorded” adds a separate entry of the source.

How the values were obtained:
[1] = Sensory evaluation of combinations of EPCalin, GSGs and SGs and NHDC in water (Example 234); format: in vivo, human; details: 4.5 ppm Thaumatin and/or 50 ppm GSGs and SGs
Experimental: 4.5 ppm Thaumatin (equivalent to 10 ppm EPCalin) were dissolved in water. Increasing amounts of NHDC (1-5 ppm) were added to the solution and the sensory properties were evaluated.
50 ppm (GSGs and SGs) were dissolved in water. Increasing amounts of NHDC (1-5 ppm) were added to the solution and the sensory properties were evaluated.
50 ppm (GSGs and SGs) and 4.5 ppm Thaumatin (equivalent to 10 ppm EPCalin) were dissolved in water. Increasing amounts of NHDC (1-5 ppm) were added to the solution and the sensory properties were evaluated.
Sweetness Intensity was Rated on 5-Point Scale

[2] = Stevia-derived MRPs with NHDC and thaumatin, alone and in Redbull sugar free (Example 240); format: in vivo, human; details: added before heating to stevia derived MRP; 150 μl in 100 ml Redbull sugar free
Experimental: 150 μl of the each sample was added to 100 ml Redbull sugar free and mixed. The taste profiles of the samples were compared. As a control, a RedBull sugar free sample without the addition of SteviAroma was used.
Before tasting the tasters discussed the upcoming series of samples and tasted samples with predetermined attributes with varying intensities to find a commonality in description. Four trained tasters blind taste tested independently all samples of a series. They were allowed to re-taste and made notes for the sensory attributes perceived including the relative intensity.
In the last step the attributes noted were discussed openly to find an acceptable description. In case that more than 1 taster disagreed with the description, the tasting was repeated.

[3] = relative to sugar; cited from earlier work
[4] = Assay to test Reducing Power (iron-III reduction test for anti-oxidant potential); details: combinations of amino acids and Reb-A, 10 mM, pH 7.8, 100° C., diluted 1:10 (FIG. 49)
Experimental: 0.2 M Sodium phosphate buffer, pH=6.6; 500 mg Potassium ferric(III)cyanide/50 mL water, 10% Trichloroacetic acid; 20 mg Iron-III-Chloride/20 mL water; Calibration samples were prepared with Ascorbic acid in a concentration of 0-100 μg/mL 0.2 M Sodium phosphate buffer, pH=6.6 (freshly prepared); as negative control sample water was used.
Samples in aqueous solution were used as such or diluted in 0.2 M Sodium phosphate buffer, pH=6.6.
A 1 mL sample (or calibration standard) was mixed with 1 mL 0.2 M Sodium phosphate buffer, pH=6.6 and 1 mL Potassium ferricyanide solution. The sample was incubated and protected from light at 50° C. for 20 min.
To the solution was added 1 mL Trichloroacetic acid with thorough mixing.
A 1 mL of the mixture was diluted with 1 mL H2O and 0.2 mL Iron-Ill-chloride and reacted for 10 minutes; The absorbance was then determined at 700 nm against H2O.
10 mM of amino acid and/or 10 mM sugar were dissolved in 10 ml 0.1 mM KH2PO4-buffer, pH=7.8. […]
1 ml sample (or calibration standard) solution) was mixed with 0.2 M Sodium phosphate buffer (pH=6.6) and 1 ml Potassium ferric(III)cyanide solution in water (1% w/v) and incubated at 50° C. for 20 minutes. […] The sample was incubated for 10 minutes and absorbance read at 700 nm against a water control. […]
Quantification was performed by linear regression of calibration test results for ascorbic acid. […]

[5] = Assay to test DPPH radical-scavenging activity; details: combinations of amino acids and Reb-A, 10 mM, pH 7.8, 100° C., diluted 1:10 (FIG. 50)
Experimental: 1 mg 1,1-Diphenyl-2-picrylhydrazyl radical (DPPH)/ml ethanol, dilution to assay concentration were prepared in ethanol (40 μg/mL); Calibration samples were prepared with Ascorbic acid in a concentration of 0-10 μg/mL; as a negative control sample, water was used.
Samples in aqueous solution were used as such or diluted with water.
A 0.1 ml sample (or calibration standard) was mixed with 3.9 ml solution of DPPH° (100 μMolar) and reacted while protected from light at room temperature for 30 min. Absorbance was determined at 517 nm against ethanol.
10 mM of amino acid and/or 10 mM sugar were dissolved in 10 ml 0.1 mM KH2PO4-buffer, pH=7.8.
The samples were kept at 100° C. in sealed glass vials (Pyrex 15 ml with screw caps) for 0 (before reaction), 2.5 or 5.0 hours. Thereafter the samples were transferred to an ice water bath and cooled down to room temperature. These samples were diluted 1:10 and used for the test assay for anti-oxidant potential. […]
0.2 ml sample (or calibration standard) solution was mixed with 0.2 ml solution of DPPH® (0.1 mM) and 3.6 ml methanol. […] After 3 minutes the absorbance at 517 nm was obtained against ethanol. Quantification was performed by linear regression of calibration test results for ascorbic acid. […]

## COc1ccc(CCC(=O)c2c(O)cc(O[C@@H]3O[C@H](CO)[C@@H](O)[C@H](O)[C@H]3O[C@@H]3O[C@@H](C)[C@H](O)[C@@H](O)[C@H]3O)cc2O)cc1O [NHDC, Neohesperidin dihydrochalcone]
[1]
  sensory properties of combinations with NHDC: long lasting lingering; also recorded: boosts the lingering
[2]
  taste profile in sugarfree beverage: improved the mouth-feel and harmony of taste impression yielding a substantially improved taste profile

## OC[C@@H](O)[C@@H](O)[C@H](O)[C@H](O)CO [D-mannitol]
[3]
  natural sweetness: 0.55-0.65 times of that of sugar

## C[C@H](CC[C@@H](O[C@@H]1O[C@H](CO[C@@H]2O[C@H](CO)[C@@H](O)[C@H](O)[C@H]2O)[C@@H](O)[C@H](O)[C@H]1O[C@@H]1O[C@H](CO)[C@@H](O)[C@H](O)[C@H]1O)C(C)(C)O)[C@H]1CC[C@@]2(C)[C@@H]3CC=C4[C@@H](CC[C@H](O[C@@H]5O[C@H](CO[C@@H]6O[C@H](CO)[C@@H](O)[C@H](O)[C@H]6O)[C@@H](O)[C@H](O)[C@H]5O)C4(C)C)[C@]3(C)[C@H](O)C[C@]12C [mogroside V]
[3]
  natural sweetness: 256-344 times of that of sugar

## C[C@H](CC[C@@H](O[C@@H]1O[C@H](CO)[C@@H](O)[C@H](O)[C@H]1O[C@@H]1O[C@H](CO)[C@@H](O)[C@H](O)[C@H]1O)C(C)(C)O)[C@H]1CC[C@@]2(C)[C@H]3CC=C4[C@@H](CC[C@H](O[C@@H]5O[C@H](CO[C@@H]6O[C@H](CO)[C@@H](O)[C@H](O)[C@H]6O)[C@@H](O)[C@H](O)[C@H]5O)C4(C)C)[C@]3(C)[C@H](O)C[C@]12C [mogroside IV]
[3]
  natural sweetness: 126 times of that of sugar

## C=C1C[C@@]23CC[C@H]4[C@@](C)(CCC[C@@]4(C)C(=O)O[C@@H]4O[C@H](CO)[C@@H](O)[C@H](O)[C@H]4O)[C@@H]2CC[C@]1(O[C@@H]1O[C@H](CO)[C@@H](O)[C@H](O[C@@H]2O[C@H](CO)[C@@H](O)[C@H](O)[C@H]2O)[C@H]1O[C@@H]1O[C@H](CO)[C@@H](O)[C@H](O)[C@H]1O)C3 [Reb-A, Rebaudioside A]
[4]
  active iron-III reduction (anti-oxidant properties): substantial anti-oxidant properties
[5]
  radical scavenging properties (anti-oxidant properties): substantial anti-oxidant properties
